Assay results from ChEMBL document CHEMBL1201861, “Genomics of Drug Sensitity in Cancer screening data, Wellcome Trust Sanger Institute”.

Key:
Test in all cases: cells
Conditions in all cases: Homo sapiens
COR-L23 = assay type: functional, cell-based
Description: SANGER: Inhibition of human COR-L23 cell growth in a cell viability assay.

CP50-MEL-B = assay type: functional, cell-based
Description: SANGER: Inhibition of human CP50-MEL-B cell growth in a cell viability assay.

ChaGo-K-1 = assay type: functional, cell-based
Description: SANGER: Inhibition of human ChaGo-K-1 cell growth in a cell viability assay.

DMS-273 = assay type: functional, cell-based
Description: SANGER: Inhibition of human DMS-273 cell growth in a cell viability assay.

G-401 = assay type: functional, cell-based
Description: SANGER: Inhibition of human G-401 cell growth in a cell viability assay.

H4 = assay type: functional, cell-based
Description: SANGER: Inhibition of human H4 cell growth in a cell viability assay.

HCC1569 = assay type: functional, cell-based
Description: SANGER: Inhibition of human HCC1569 cell growth in a cell viability assay.

HCC1806 = assay type: functional, cell-based
Description: SANGER: Inhibition of human HCC1806 cell growth in a cell viability assay.

HEC-1 = assay type: functional, cell-based
Description: SANGER: Inhibition of human HEC-1 cell growth in a cell viability assay.

HSC-3 = assay type: functional, cell-based
Description: SANGER: Inhibition of human HSC-3 cell growth in a cell viability assay.

KYSE-270 = assay type: functional, cell-based
Description: SANGER: Inhibition of human KYSE-270 cell growth in a cell viability assay.

KYSE-520 cell line = assay type: functional, cell-based
Description: SANGER: Inhibition of human KYSE-520 cell growth in a cell viability assay.

MDA-MB-175-VII = assay type: functional, cell-based
MDA-MB-453 = assay type: functional, cell-based
Description: SANGER: Inhibition of human MDA-MB-453 cell growth in a cell viability assay.

MKN-7 = assay type: functional, cell-based
Description: SANGER: Inhibition of human MKN7 cell growth in a cell viability assay.

NB12 = assay type: functional, cell-based
Description: SANGER: Inhibition of human NB12 cell growth in a cell viability assay.

NCI-H1573 = assay type: functional, cell-based
Description: SANGER: Inhibition of human NCI-H1573 cell growth in a cell viability assay.

NCI-H1623 = assay type: functional, cell-based
Description: SANGER: Inhibition of human NCI-H1623 cell growth in a cell viability assay.

NCI-H2030 = assay type: functional, cell-based
Description: SANGER: Inhibition of human NCI-H2030 cell growth in a cell viability assay.

NCI-H520 = assay type: functional, cell-based
Description: SANGER: Inhibition of human NCI-H520 cell growth in a cell viability assay.

NCI-H650 = assay type: functional, cell-based
Description: SANGER: Inhibition of human NCI-H650 cell growth in a cell viability assay.

OAW-42 = assay type: functional, cell-based
Description: SANGER: Inhibition of human OAW-42 cell growth in a cell viability assay.

PFSK-1 = assay type: functional, cell-based
Description: SANGER: Inhibition of human PFSK-1 cell growth in a cell viability assay.

RERF-LC-MS = assay type: functional, cell-based
Description: SANGER: Inhibition of human RERF-LC-MS cell growth in a cell viability assay.

S-117 = assay type: functional, cell-based
Description: SANGER: Inhibition of human S-117 cell growth in a cell viability assay.

SBC-5 = assay type: functional, cell-based
Description: SANGER: Inhibition of human SBC-5 cell growth in a cell viability assay.

SCC-25 = assay type: functional, cell-based
Description: SANGER: Inhibition of human SCC-25 cell growth in a cell viability assay.

SK-HEP1 = assay type: functional, cell-based, SK-HEP-1
Description: SANGER: Inhibition of human SK-HEP-1 cell growth in a cell viability assay.

SK-MEL3 = assay type: functional, cell-based, SK-MEL-3
Description: SANGER: Inhibition of human SK-MEL-3 cell growth in a cell viability assay.

SW1088 = assay type: functional, cell-based
Description: SANGER: Inhibition of human SW1088 cell growth in a cell viability assay.

SW1710 = assay type: functional, cell-based
Description: SANGER: Inhibition of human SW1710 cell growth in a cell viability assay.

SW1990 = assay type: functional, cell-based
Description: SANGER: Inhibition of human SW1990 cell growth in a cell viability assay.

647-V = assay type: functional, cell-based
Description: SANGER: Inhibition of human 647-V cell growth in a cell viability assay.

8305C = assay type: functional, cell-based
Description: SANGER: Inhibition of human 8305C cell growth in a cell viability assay.

A2058 = assay type: functional, cell-based
Description: SANGER: Inhibition of human A2058 cell growth in a cell viability assay.

A253 cell line = assay type: functional, cell-based
Description: SANGER: Inhibition of human A253 cell growth in a cell viability assay.

BHT-101 = assay type: functional, cell-based
Description: SANGER: Inhibition of human BHT-101 cell growth in a cell viability assay.

C32 = assay type: functional, cell-based
Description: SANGER: Inhibition of human C32 cell growth in a cell viability assay.

U2OS = assay type: functional, cell-based, U-2-OS
Description: SANGER: Inhibition of human U-2-OS cell growth in a cell viability assay.

UMUC3 = assay type: functional, cell-based
Description: SANGER: Inhibition of human UM-UC-3 cell growth in a cell viability assay.

UMC-11 = assay type: functional, cell-based
Description: SANGER: Inhibition of human UMC-11 cell growth in a cell viability assay.

YAPC = assay type: functional, cell-based
Description: SANGER: Inhibition of human YAPC cell growth in a cell viability assay.

CHP-212 = assay type: functional, cell-based
Description: SANGER: Inhibition of human CHP-212 cell growth in a cell viability assay.

HCT-15 = assay type: functional, cell-based
Description: SANGER: Inhibition of human HCT-15 cell growth in a cell viability assay.

## Cn1c(=O)n(-c2ccc(C(C)(C)C#N)cc2)c2c3cc(-c4cnc5ccccc5c4)ccc3ncc21 [DACTOLISIB]
COR-L23
  IC50: 49.2 nM
CP50-MEL-B
  IC50: 77.4 nM
ChaGo-K-1
  IC50: 328 nM
DMS-273
  IC50: 60.9 nM
G-401
  IC50: 40.8 nM
H4
  IC50: 12.7 nM
HCC1569
  IC50: 276 nM
HCC1806
  IC50: 168 nM
HEC-1
  IC50: 67.5 nM
HSC-3
  IC50: 12.2 nM
KYSE-270
  IC50: 131 nM
KYSE-520 cell line
  IC50: 253 nM
MDA-MB-175-VII
  IC50: 39.5 nM
MDA-MB-453
  IC50: > 2000 nM
MKN-7
  IC50: 124 nM
NB12
  IC50: 528 nM
NCI-H1573
  IC50: 87.5 nM
NCI-H1623
  IC50: 47.8 nM
NCI-H2030
  IC50: 21.5 nM
NCI-H520
  IC50: 83.1 nM
NCI-H650
  IC50: 94.1 nM
OAW-42
  IC50: 73.4 nM
PFSK-1
  IC50: 49.1 nM
RERF-LC-MS
  IC50: 124 nM
S-117
  IC50: 76.3 nM
SBC-5
  IC50: 83.5 nM
SCC-25
  IC50: 89.8 nM
SK-HEP1
  IC50: 46 nM
SK-MEL3
  IC50: 148 nM
SW1088
  IC50: 28.3 nM
SW1710
  IC50: 18.7 nM
SW1990
  IC50: 109 nM
647-V
  IC50: 78.1 nM
8305C
  IC50: 41.9 nM
A2058
  IC50: 33.2 nM
A253 cell line
  IC50: 82.6 nM
BHT-101
  IC50: 30 nM
C32
  IC50: 53.8 nM
U2OS
  IC50: 29.5 nM
UMUC3
  IC50: < 7.81 nM
UMC-11
  IC50: 458 nM
YAPC
  IC50: 491 nM
CHP-212
  IC50: 74.9 nM

## CC(=O)c1c(C)c2cnc(Nc3ccc(N4CCNCC4)cn3)nc2n(C2CCCC2)c1=O [PALBOCICLIB]
COR-L23
  IC50: 1230 nM
CP50-MEL-B
  IC50: > 4000 nM
ChaGo-K-1
  IC50: > 4000 nM
DMS-273
  IC50: > 4000 nM
G-401
  IC50: 1920 nM
H4
  IC50: 1730 nM
HCC1569
  IC50: > 4000 nM
HCC1806
  IC50: > 4000 nM
HEC-1
  IC50: > 4000 nM
HSC-3
  IC50: 966 nM
KYSE-270
  IC50: > 4000 nM
KYSE-520 cell line
  IC50: > 4000 nM
MDA-MB-175-VII
  IC50: > 4000 nM
MDA-MB-453
  IC50: > 4000 nM
MKN-7
  IC50: > 4000 nM
NB12
  IC50: > 4000 nM
NCI-H1573
  IC50: 2070 nM
NCI-H1623
  IC50: > 4000 nM
NCI-H520
  IC50: 747 nM
NCI-H650
  IC50: > 4000 nM
OAW-42
  IC50: > 4000 nM
PFSK-1
  IC50: > 4000 nM
RERF-LC-MS
  IC50: > 4000 nM
S-117
  IC50: > 4000 nM
SBC-5
  IC50: > 4000 nM
SCC-25
  IC50: > 4000 nM
SK-HEP1
  IC50: 2590 nM
SK-MEL3
  IC50: > 4000 nM
SW1088
  IC50: 3470 nM
SW1710
  IC50: 2070 nM
SW1990
  IC50: > 4000 nM
647-V
  IC50: > 4000 nM
8305C
  IC50: > 4000 nM
A253 cell line
  IC50: > 4000 nM
BHT-101
  IC50: 198 nM
C32
  IC50: > 4000 nM
U2OS
  IC50: 3730 nM
UMC-11
  IC50: > 4000 nM
YAPC
  IC50: > 4000 nM
CHP-212
  IC50: 594 nM

## CCCS(=O)(=O)Nc1ccc(F)c(C(=O)c2c[nH]c3ncc(Cl)cc23)c1F [PLX-4720]
COR-L23
  IC50: > 10000 nM
CP50-MEL-B
  IC50: 298 nM
ChaGo-K-1
  IC50: > 10000 nM
DMS-273
  IC50: > 10000 nM
G-401
  IC50: > 10000 nM
H4
  IC50: 6220 nM
HCC1569
  IC50: > 10000 nM
HCC1806
  IC50: 6820 nM
HCT-15
  IC50: > 10000 nM
HEC-1
  IC50: > 10000 nM
HSC-3
  IC50: 8070 nM
KYSE-270
  IC50: > 10000 nM
KYSE-520 cell line
  IC50: > 10000 nM
MDA-MB-175-VII
  IC50: > 10000 nM
MDA-MB-453
  IC50: > 10000 nM
MKN-7
  IC50: > 10000 nM
NB12
  IC50: > 10000 nM
NCI-H1573
  IC50: > 10000 nM
NCI-H1623
  IC50: > 10000 nM
NCI-H2030
  IC50: > 10000 nM
NCI-H520
  IC50: > 10000 nM
NCI-H650
  IC50: > 10000 nM
OAW-42
  IC50: > 10000 nM
PFSK-1
  IC50: > 10000 nM
RERF-LC-MS
  IC50: > 10000 nM
S-117
  IC50: > 10000 nM
SBC-5
  IC50: > 10000 nM
SCC-25
  IC50: > 10000 nM
SK-HEP1
  IC50: > 10000 nM
SK-MEL3
  IC50: 516 nM
SW1088
  IC50: > 10000 nM
SW1710
  IC50: > 10000 nM
SW1990
  IC50: > 10000 nM
647-V
  IC50: > 10000 nM
8305C
  IC50: 5190 nM
A2058
  IC50: 4720 nM
A253 cell line
  IC50: > 10000 nM
BHT-101
  IC50: 707 nM
C32
  IC50: 151 nM
U2OS
  IC50: > 10000 nM
UMUC3
  IC50: > 10000 nM
UMC-11
  IC50: > 10000 nM
YAPC
  IC50: > 10000 nM
CHP-212
  IC50: > 10000 nM
